The target in experiment [1] is T1, Glucocorticoid receptor (Homo sapiens, UniProt P04150).
T1 sequence (P04150 whole entry): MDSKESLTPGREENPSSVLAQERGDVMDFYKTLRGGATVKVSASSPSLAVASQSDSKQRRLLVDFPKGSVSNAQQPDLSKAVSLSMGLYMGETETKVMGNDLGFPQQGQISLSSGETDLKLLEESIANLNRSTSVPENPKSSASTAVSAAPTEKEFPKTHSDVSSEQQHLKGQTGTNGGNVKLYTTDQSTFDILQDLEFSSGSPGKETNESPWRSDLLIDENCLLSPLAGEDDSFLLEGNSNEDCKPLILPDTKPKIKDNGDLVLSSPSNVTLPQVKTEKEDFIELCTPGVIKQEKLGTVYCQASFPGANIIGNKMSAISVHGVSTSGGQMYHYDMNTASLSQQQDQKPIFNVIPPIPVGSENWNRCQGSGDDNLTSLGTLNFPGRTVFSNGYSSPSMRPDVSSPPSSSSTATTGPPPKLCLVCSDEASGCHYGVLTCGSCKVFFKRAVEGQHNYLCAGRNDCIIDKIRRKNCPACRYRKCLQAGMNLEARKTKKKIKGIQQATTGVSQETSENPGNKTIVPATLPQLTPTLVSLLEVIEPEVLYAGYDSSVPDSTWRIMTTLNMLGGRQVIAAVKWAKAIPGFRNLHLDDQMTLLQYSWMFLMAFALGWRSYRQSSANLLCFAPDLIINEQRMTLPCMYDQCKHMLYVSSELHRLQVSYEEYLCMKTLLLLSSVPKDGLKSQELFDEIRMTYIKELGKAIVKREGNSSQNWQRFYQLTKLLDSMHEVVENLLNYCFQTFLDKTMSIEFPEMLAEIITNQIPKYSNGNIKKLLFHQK
Briefly: Binding affinity to glucocorticoid receptor (unknown origin) by Lanthascreen TR-FRET competition binding assay.

The target of experiment [2] is T1, Glucocorticoid receptor. Briefly: Modulation of glucocorticoid receptor (unknown origin) transfected in human HeLa cells assessed as transrepression by measuring inhibition of TNF-alpha induced NF-kappaB signalling incubated for 18 hrs by dual-luciferase reporter based assay. It is filed as cell-based. (Reporter assays use an easily measured gene product as a stand-in for the process of interest.)

Experiment [3] has as its target T1, Glucocorticoid receptor. Put plainly: Modulation of glucocorticoid receptor (unknown origin) transfected in human HeLa cells assessed as transrepression by measuring inhibition of PMA-induced AP-1 signalling incubated for 18 hrs by dual-luciferase reporter based assay. It is filed as cell-based.

`C#CC1=C(SCC(=O)c2ccccc2)NC(C)=C(C(C)=O)C1c1cccs1` (stereo unspecified): in experiment [1], the IC50 stood at 1860 nM.

Consider `COc1ccc(C(=O)N2CCCc3cc(NS(=O)(=O)c4cc(Cl)c(C)cc4OC)ccc32)cc1`, for which the values for the IC50 in experiment [1], in experiment [2] and in experiment [3] were above 50000 nM, 67 nM and 1420 nM, respectively.

Regarding `O=C(c1ccco1)N1CCCc2cc(NS(=O)(=O)c3ccc(C(F)(F)F)cc3)ccc21`, the IC50 in experiment [1] was above 50000 nM; in experiment [2], 2620 nM; in experiment [3], 3220 nM.

For `COC(=O)c1ccc(C(=O)N2CCCc3cc(NS(=O)(=O)c4cc(Cl)c(C)cc4OC)ccc32)cc1`, the IC50 was above 50000 nM in experiment [1], 710 nM in experiment [2] and 2720 nM in experiment [3].

In the case of `O=C(c1ccco1)N1CCCc2cc(NS(=O)(=O)c3ccccc3)ccc21`, the values for the IC50 in experiment [1], in experiment [2] and in experiment [3] were 1920 nM, 3990 nM and 3830 nM, respectively.

With `O=C(c1ccco1)N1CCCc2cc(NS(=O)(=O)c3ccc(-c4ccccc4)cc3)ccc21`, the IC50 in experiment [1] worked out at 90 nM; in experiment [2], 810 nM; in experiment [3], 7220 nM.

In the case of `O=C(c1ccco1)N1CCCc2cc(N(S(=O)(=O)c3ccc4c(c3)CCCC4)S(=O)(=O)c3ccc4c(c3)CCCC4)ccc21`, the concentration for half-maximal inhibition (IC50) is above 50000 nM in experiment [1], 700 nM in experiment [2] and 7990 nM in experiment [3].

On to `COc1cc(C)c(Cl)cc1S(=O)(=O)Nc1ccc2c(c1)CCCN2C(=O)c1ccc(C)cc1F`, for which the concentration for half-maximal inhibition (IC50) in experiment [2] and in experiment [3] was above 10000 nM in each case.

On to `COc1cc(C)c(C)cc1S(=O)(=O)Nc1ccc2c(c1)CCCN2C(=O)C1CC1`, for which the IC50 in experiment [1] stood at 7500 nM; in experiment [2] it was 100 nM; in experiment [3] it was 360 nM.

For `COc1cc(C)c(C)cc1S(=O)(=O)Nc1ccc2c(c1)CCCN2C(=O)C1CCCCC1`, the figures for the IC50 in experiment [1], in experiment [2] and in experiment [3] were above 50000 nM, 4610 nM and above 10000 nM, respectively.

Turning to `O=C(c1ccco1)N1CCCc2cc(N(S(=O)(=O)Cc3ccccc3)S(=O)(=O)Cc3ccccc3)ccc21`, the IC50 in experiment [2] and in experiment [3] was above 50000 nM in each case.

With `O=C(c1ccco1)N1CCCc2cc(NS(=O)(=O)c3ccc4c(c3)CCO4)ccc21`, the half-inhibitory concentration (IC50) came out at 1970 nM in experiment [1], 1320 nM in experiment [2] and 5040 nM in experiment [3].

Take `COc1cc(C)c(C)cc1S(=O)(=O)Nc1ccc2c(c1)CCCN2C(=O)c1ccccc1`: the IC50 in experiment [1] is above 50000 nM; in experiment [2] it was 890 nM; in experiment [3] it was 1140 nM.

Turning to `O=C(c1ccco1)N1CCCc2cc(N(S(=O)(=O)c3ccc(C(F)(F)F)cc3)S(=O)(=O)c3ccc(C(F)(F)F)cc3)ccc21`, the half-inhibitory concentration (IC50) in experiment [2] and in experiment [3] was above 50000 nM throughout.

In the case of `O=C(c1ccco1)N1CCCc2cc(N(S(=O)(=O)c3cc4ccccc4s3)S(=O)(=O)c3cc4ccccc4s3)ccc21`, the values for the IC50 in experiment [1], in experiment [2] and in experiment [3] were above 50000 nM, 430 nM and 3190 nM, respectively.

`CCS(=O)(=O)N(c1ccc2c(c1)CCCN2C(=O)c1ccco1)S(=O)(=O)CC`: the IC50 in experiment [2] and in experiment [3] was above 50000 nM each time.

With `COc1cc(C)c(Cl)cc1S(=O)(=O)Nc1ccc2c(c1)CCCN2C(=O)c1ccc(Cl)cc1`, the results for the 50% inhibitory concentration (IC50) in experiment [1], in experiment [2] and in experiment [3] were 2070 nM, 100 nM and 1810 nM, respectively.

Turning to `NC(=O)c1ccc(S(=O)(=O)Nc2ccc3c(c2)CCCN3C(=O)c2ccco2)cc1`, the IC50 in experiment [2] and in experiment [3] was above 10000 nM throughout.

For `O=C(c1ccco1)N1CCCc2cc(NS(=O)(=O)c3cccs3)ccc21`, the IC50 is above 50000 nM in experiment [1], above 10000 nM in experiment [2] and 9260 nM in experiment [3].

Take `O=C(c1ccco1)N1CCCc2cc(NS(=O)(=O)c3ccc(Cl)c([N+](=O)[O-])c3)ccc21`: the half-maximal inhibitory concentration (IC50) in experiment [1] is 590 nM; in experiment [2], 260 nM; in experiment [3], 1000 nM.

As for `COc1ccc(S(=O)(=O)N(c2ccc3c(c2)CCCN3C(=O)c2ccco2)S(=O)(=O)c2ccc(OC)cc2)cc1`, the IC50 was above 50000 nM in experiment [1], 280 nM in experiment [2] and 1050 nM in experiment [3].

As to `COc1cc(C)c(Cl)cc1S(=O)(=O)Nc1ccc2c(c1)CCCN2C(=O)c1ccco1`, the values for the IC50 in experiment [1], in experiment [2] and in experiment [3] were 5020 nM, 50 nM and above 10000 nM, respectively.

Turning to `CCCCS(=O)(=O)N(c1ccc2c(c1)CCCN2C(=O)c1ccco1)S(=O)(=O)CCCC`, the IC50 in experiment [1] is above 50000 nM; in experiment [2], 1790 nM; in experiment [3], 2840 nM.

As to `COc1cc(C)c(Cl)cc1S(=O)(=O)Nc1ccc2c(c1)N(C(=O)c1ccco1)CCC2`, the IC50 is above 50000 nM in experiment [1], 60 nM in experiment [2] and 680 nM in experiment [3].

On to `O=C(c1ccco1)N1CCCc2cc(N(S(=O)(=O)c3cccnc3)S(=O)(=O)c3cccnc3)ccc21`, for which the IC50 is above 10000 nM in experiment [2] and above 50000 nM in experiment [3].

With `CCCCc1ccc(C(=O)N2CCCc3cc(NS(=O)(=O)c4cc(Cl)c(C)cc4OC)ccc32)cc1`, the half-maximal inhibitory concentration (IC50) in experiment [1] was above 50000 nM; in experiment [2], 100 nM; in experiment [3] it was above 10000 nM.

As for `N#Cc1ccc(S(=O)(=O)Nc2ccc3c(c2)CCCN3C(=O)c2ccco2)cc1`, the IC50 in experiment [2] and in experiment [3] was above 10000 nM throughout.

With `O=C(c1ccco1)N1CCCc2cc(N(S(=O)(=O)c3cccs3)S(=O)(=O)c3cccs3)ccc21`, the figures for the IC50 in experiment [1], in experiment [2] and in experiment [3] were above 50000 nM, 1050 nM and 2860 nM, respectively.

For `O=C(c1ccco1)N1CCCc2cc(NS(=O)(=O)c3ccc([N+](=O)[O-])cc3)ccc21`, the concentration for half-maximal inhibition (IC50) in experiment [1] is above 50000 nM; in experiment [2], 3620 nM; in experiment [3] it was 4270 nM.

As for `COc1cc(C)c(Cl)cc1S(=O)(=O)Nc1ccc2c(c1)CCCN2C(=O)c1ncccn1`, the IC50 was above 50000 nM in experiment [1], 130 nM in experiment [2] and 1170 nM in experiment [3].

In the case of `CCCCc1ccc(S(=O)(=O)Nc2ccc3c(c2)CCCN3C(=O)c2ccco2)cc1`, the values for the IC50 in experiment [1], in experiment [2] and in experiment [3] were 7160 nM, 1150 nM and 3690 nM, respectively.

In the case of `COc1cc(C)c(Cl)cc1S(=O)(=O)Nc1ccc2c(c1)CCCN2C(=O)c1ccncc1`, the IC50 is above 50000 nM in experiment [1], 20 nM in experiment [2] and 550 nM in experiment [3].

With `COc1cc(C)c(Cl)cc1S(=O)(=O)Nc1ccc2c(c1)CCCN2C(=O)C1CCCCC1`, the half-maximal inhibitory concentration (IC50) in experiment [1] was above 50000 nM; in experiment [2], 580 nM; in experiment [3], above 10000 nM.

As for `COc1ccccc1S(=O)(=O)Nc1ccc2c(c1)CCCN2C(=O)c1ccco1`, the 50% inhibitory concentration (IC50) in experiment [1] is above 10000 nM; in experiment [2] it was 900 nM; in experiment [3] it was 4910 nM.

On to `O=C(c1ccco1)N1CCCc2cc(N(S(=O)(=O)c3ccc(-c4ccccc4)cc3)S(=O)(=O)c3ccc(-c4ccccc4)cc3)ccc21`, for which the figures for the IC50 in experiment [1], in experiment [2] and in experiment [3] were 2290 nM, 70 nM and 4150 nM, respectively.

For `N#Cc1ccc(S(=O)(=O)N(c2ccc3c(c2)CCCN3C(=O)c2ccco2)S(=O)(=O)c2ccc(C#N)cc2)cc1`, the figures for the IC50 in experiment [1], in experiment [2] and in experiment [3] were above 30000 nM, above 10000 nM and 3150 nM, respectively.

For the compound `COc1ccc(S(=O)(=O)Nc2ccc3c(c2)CCCN3C(=O)c2ccco2)cc1`, the IC50 in experiment [1] is above 50000 nM; in experiment [2], 1830 nM; in experiment [3] it was 5620 nM.

For the compound `COc1ccc(C(=O)N2CCCc3cc(NS(=O)(=O)c4cc(Cl)c(C)cc4OC)ccc32)cc1OC`, the IC50 was determined as 3430 nM in experiment [1], 450 nM in experiment [2] and 1320 nM in experiment [3].

Turning to `COc1cc(C)c(Cl)cc1S(=O)(=O)Nc1ccc2c(c1)CCCN2C(=O)c1cccs1`, the IC50 turned out to be 1140 nM in experiment [1], 170 nM in experiment [2] and 1360 nM in experiment [3].

In the case of `O=C(c1ccco1)N1CCCc2cc(NS(=O)(=O)c3ccc(F)cc3)ccc21`, the IC50 in experiment [2] and in experiment [3] was above 10000 nM in each case.

Take `O=C(c1ccco1)N1CCCc2cc(NS(=O)(=O)c3ccc(Cl)c(C(F)(F)F)c3)ccc21`: the IC50 turned out to be 19700 nM in experiment [1], 2450 nM in experiment [2] and 4120 nM in experiment [3].

Regarding `CC(C)(C)c1ccc(S(=O)(=O)N(c2ccc3c(c2)CCCN3C(=O)c2ccco2)S(=O)(=O)c2ccc(C(C)(C)C)cc2)cc1`, the IC50 in experiment [2] and in experiment [3] was above 10000 nM throughout.

Regarding `COC(=O)c1ccc(S(=O)(=O)N(c2ccc3c(c2)CCCN3C(=O)c2ccco2)S(=O)(=O)c2ccc(C(=O)OC)cc2)cc1`, the IC50 is above 50000 nM in experiment [2] and above 10000 nM in experiment [3].

In the case of `O=C(c1ccco1)N1CCCc2cc(N(S(=O)(=O)c3ccc(Br)cc3)S(=O)(=O)c3ccc(Br)cc3)ccc21`, the figures for the IC50 in experiment [2] and in experiment [3] were above 10000 nM and above 25000 nM, respectively.

With `COc1cccc(Cl)c1S(=O)(=O)Nc1ccc2c(c1)CCCN2C(=O)c1ccco1`, the half-maximal inhibitory concentration (IC50) in experiment [2] and in experiment [3] was above 10000 nM throughout.

Usually IC50 stands for the concentration needed to halve the response being measured.

For the origin of these results see ChEMBL document CHEMBL5236596, “Discovery and Optimization of N-Acyl-6-sulfonamide-tetrahydroquinoline Derivatives as Novel Non-Steroidal Selective Glucocorticoid Receptor Modulators” (J Med Chem, 2022).
